Data from patent US7935825B2, “Arylsulfanyl and heteroarylsulfanyl derivatives for treating pain” (Allergan, Inc., priority 2001, dated 2011).
Read-outs that look alike come from different tables or passages of the source.

How the values were obtained:
tactile allodynia = assay: Chronic pain model: spinal nerve (L5/L6) ligation, tactile allodynia measured with von Frey hairs; assay type: in vivo; conditions: rats
Description: A model for chronic pain (in particular peripheral neuropathy such as causalgia) involves the surgical ligation of the L5 (and optionally the L6) spinal nerves on one side in experimental animals. Rats recovering from the surgery gain weight and display a level of general activity similar to that of normal rats. However, these rats develop abnormalities of the foot, wherein the hindpaw is moderately everted and the toes are held together. More importantly, the hindpaw on the side affected by the surgery appears to become sensitive to pain from low-threshold mechanical stimuli, such as that producing a faint sensation of touch in a human, within about 1 week following surgery. This sensitivity to normally non-painful touch is called “tactile allodynia” and lasts for at least two months. The response includes lifting the affected hindpaw to escape from the stimulus, licking the paw and holding it in the air for many seconds. None of these responses is normally seen in the control group.
Rats are anesthetized before surgery. The surgical site is shaved and prepared either with betadine or Novacaine. Incision is made from the thoracic vertebra Xlll down toward the sacrum. Muscle tissue is separated from the spinal vertebra (left side) at the L4-S2 levels. The L6 vertebra is located and the transverse process is carefully removed with a small rongeur to expose the L4-L6 spinal nerves. The L5 and L6 spinal nerves are isolated and tightly ligated with 6-0 silk thread. The same procedure is done on the right side as a control, except no ligation of the spinal nerves is performed.
A complete hemostasis is confirmed, then the wounds are sutured. A small amount of antibiotic ointment is applied to the incised area, and the rat is transferred to the recovery plastic cage under a regulated heat-temperature lamp. On the day of the experiment, at least seven days after the surgery, six rats per test group are administered the test drugs by intraperitoneal (i.p.) injection or oral gavage. For i.p. injection, the compounds are formulated in approximately 50% DMSO and given in a volume of 1 ml/kg body weight. The compound of Example 7 was tested at doses ranging between 30 and 3000 ng/kg. A volume equal to 1 ml/kg body weight of an appropriate concentration (i.e.. 1 mg/ml for a 1 mg/kg dose) of the compound of Example 7 formulated in approximately 50% DMSO was injected using an 18-gauge, 3-inch gavage needle that is slowly inserted through the esophagus into the stomach.
Tactile allodynia is measured prior to and 30 minutes after drug administration using von Frey hairs that are a series of fine hairs with incremental differences in stiffness. Rats are placed in a plastic cage with a wire mesh bottom and allowed to acclimate for approximately 30 minutes. The von Frey hairs are applied perpendicularly through the mesh to the mid-plantar region of the rats' hindpaw with sufficient force to cause slight buckling and held for 6-8 seconds. The applied force has been calculated to range from 0.41 to 15.1 grams. If the paw is sharply withdrawn, it is considered a positive response. A normal animal will not respond to stimuli in this range, but a surgically ligated paw will be withdrawn in response to a 1-2 gram hair. The 50% paw withdrawal threshold is determined using the method of Dixon, W. J., Ann. Rev. Pharmacol. Toxicol. 20:441-462 (1980). The post-drug threshold is compared to the pre-drug threshold and the percent reversal of tactile sensitivity is calculated based on a normal threshold of 15.1 grams. […] Compared to a saline solution, this compound reversed the allodynic pain by 25% at an i.p. dose of 100 ng/kg, 60% at 300 ng/kg, 90% at […] and 92% at 3000 ng/kg.

receptors for PGE2 = conditions: cited from earlier work
[1] = i.p. dose of 100 ng/kg, 30 minutes after drug administration
[2] = i.p. dose of 300 ng/kg, 30 minutes after drug administration

Row | Structure (SMILES) | reversal of allodynic pain (percent reversal of tactile sensitivity) (tactile allodynia; i.p. dose of 30 ng/kg, 30 minutes after drug administration) [%] | reversal of allodynic pain (percent reversal of tactile sensitivity) (tactile allodynia; [1]) [%] | reversal of allodynic pain (percent reversal of tactile sensitivity) (tactile allodynia; [2]) [%] | reversal of allodynic pain (percent reversal of tactile sensitivity) (tactile allodynia; i.p., dose figure not printed ("at ng/kg")) [%] | response to the tactile stimuli that indicate tactile allodynia (tactile allodynia; doses between 30 and 3000 ng/kg) | reversal of allodynic pain (percent reversal of tactile sensitivity) (tactile allodynia; i.p. dose of 3000 ng/kg, 30 minutes after drug administration) [%] | reversal of allodynic pain (percent reversal of tactile sensitivity) (tactile allodynia; i.p. dose printed as 100 mg/kg, 30 minutes after drug administration) [%] | effect on PGE2 action in tissue (receptors for PGE2; cat trachea or chick ileum) | effect on PGE2 action in tissue (receptors for PGE2; guinea pig ileum or dog fundus)
1 | CCN(Cc1cc(Br)ccc1OCc1ccccc1)c1ccc(C(=O)O)cn1 [6-[(2-Benzyloxy-5-bromobenzyl)ethylamino]nicotinic acid] | 10 | 50 | 55 | 60 |  |  |  |  | 
2 | CCN(Cc1ccccc1SCc1ccccc1)c1ccc(C(=O)O)cn1 [Example 7, 6-[(2-Benzylsulfanylbenzyl)ethylamino]nicotinic acid] |  | 25 | 60 |  | able to reduce the response to the tactile stimuli | 92 | 90 |  | 
3 | CC(=O)NNC(=O)N1Cc2ccccc2Oc2ccc(Cl)cc21 [SC-19220] |  |  |  |  |  |  |  | not on other tissues | blocks the effect of PGE2
